Data published in ChEMBL document CHEMBL6109125, “A New Protractor Potentiates Glucagon-Like Peptide 1 with Slow-Release Depot and Long-Term Action” (J Med Chem, 2025).

What was measured:
Type in all cases: functional, cell-based
[1] = target: T1, Glucagon-like peptide 1 receptor (Homo sapiens, UniProt P43220); assay: Agonist activity at GLP-1R (unknown origin) expressed in HEK293 cells co-expressing CRE-Luc assessed as increase in intracellular cAMP accumulation in presence of 10% FBS by luciferase based assay
[2] = target: T1, Glucagon-like peptide 1 receptor; assay: Agonist activity at GLP-1R (unknown origin) expressed in HEK293 cells co-expressing CRE-Luc assessed as increase in intracellular cAMP accumulation by luciferase based assay
[3] = target: T1, Glucagon-like peptide 1 receptor; assay: Agonist activity at GLP-1R (unknown origin) expressed in HEK293 cells co-expressing CRE-Luc assessed as increase in intracellular cAMP accumulation in presence of 2% HSA by luciferase based assay

T1 sequence (P43220 whole entry): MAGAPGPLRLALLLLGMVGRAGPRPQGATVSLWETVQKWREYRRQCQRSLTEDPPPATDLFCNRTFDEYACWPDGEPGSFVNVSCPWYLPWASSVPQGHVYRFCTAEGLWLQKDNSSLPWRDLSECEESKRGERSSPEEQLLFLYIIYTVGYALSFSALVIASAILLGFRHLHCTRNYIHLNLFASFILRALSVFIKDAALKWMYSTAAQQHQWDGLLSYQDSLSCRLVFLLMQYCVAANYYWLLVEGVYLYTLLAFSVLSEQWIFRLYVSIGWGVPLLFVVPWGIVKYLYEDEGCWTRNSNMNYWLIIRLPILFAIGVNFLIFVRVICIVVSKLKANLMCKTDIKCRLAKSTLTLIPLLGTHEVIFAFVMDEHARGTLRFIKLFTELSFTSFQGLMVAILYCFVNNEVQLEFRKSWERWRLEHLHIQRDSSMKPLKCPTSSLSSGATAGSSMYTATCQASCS

| EC50 ([1]; hek293) | EC50 ([2]; hek293) | EC50 ([3]; hek293) | EC50 ([1]; read-out: EC50) [pM] | EC50 ([2]; read-out: EC50) [pM] | EC50 ([3]; read-out: EC50) [pM] | SMILES |
| --- | --- | --- | --- | --- | --- | --- |
| – | – | – | 4.2 | 1.08 | 3.22 | CCOc1ccc(Nc2ccc(/C(=C3C=C/C(=[N+](\CC)Cc4ccc(S(=O)(=O)[O-])cc4)C=C/3C)c3ccc(N(CC)Cc4cccc(S(=O)(=O)NCCCCCC(=O)NCc5ccc(C(=O)NCCCC[C@H](NC(=O)[C@H](C)NC(=O)[C@H](C)NC(=O)[C@H](CCC(N)=O)NC(=O)CNC(=O)[C@H](CCC(=O)O)NC(=O)[C@H](CC(C)C)NC(=O)[C@H](Cc6ccc(O)cc6)NC(=O)[C@H](CO)NC(=O)[C@H](CO)NC(=O)[C@@H](NC(=O)[C@H](CC(=O)O)NC(=O)[C@H](CO)NC(=O)[C@@H](NC(=O)[C@H](Cc6ccccc6)NC(=O)[C@@H](NC(=O)CNC(=O)[C@H](CCC(=O)O)NC(=O)C(C)(C)NC(=O)[C@@H](N)Cc6c[nH]cn6)[C@@H](C)O)[C@@H](C)O)C(C)C)C(=O)N[C@@H](CCC(=O)O)C(=O)N[C@@H](Cc6ccccc6)C(=O)N[C@H](C(=O)N[C@@H](C)C(=O)N[C@@H](Cc6c[nH]c7ccccc67)C(=O)N[C@@H](CC(C)C)C(=O)N[C@H](C(=O)N[C@@H](CCCNC(=N)N)C(=O)NCC(=O)N[C@@H](CCCNC(=N)N)C(=O)NCC(=O)O)C(C)C)[C@@H](C)CC)cc5)c4)cc3C)cc2)cc1 |
| – | – | – | 1.46 | 0.83 | 4.31 | CCOc1ccc(Nc2ccc(/C(=C3C=C/C(=[N+](\CC)Cc4cccc(S(=O)(=O)[O-])c4)C=C/3C)c3ccc(N(CC)Cc4cccc(S(=O)(=O)NCCCCCC(=O)NCCOCCOCC(=O)NCCOCCOCC(=O)NCCOCCOCC(=O)NCCCC[C@H](NC(=O)[C@H](C)NC(=O)[C@H](C)NC(=O)[C@H](CCC(N)=O)NC(=O)CNC(=O)[C@H](CCC(=O)O)NC(=O)[C@H](CC(C)C)NC(=O)[C@H](Cc5ccc(O)cc5)NC(=O)[C@H](CO)NC(=O)[C@H](CO)NC(=O)[C@@H](NC(=O)[C@H](CC(=O)O)NC(=O)[C@H](CO)NC(=O)[C@@H](NC(=O)[C@H](Cc5ccccc5)NC(=O)[C@@H](NC(=O)CNC(=O)[C@H](CCC(=O)O)NC(=O)C(C)(C)NC(=O)[C@@H](N)Cc5c[nH]cn5)[C@@H](C)O)[C@@H](C)O)C(C)C)C(=O)N[C@@H](CCC(=O)O)C(=O)N[C@@H](Cc5ccccc5)C(=O)N[C@H](C(=O)N[C@@H](C)C(=O)N[C@@H](Cc5c[nH]c6ccccc56)C(=O)N[C@@H](CC(C)C)C(=O)N[C@H](C(=O)N[C@@H](CCCNC(=N)N)C(=O)NCC(=O)N[C@@H](CCCNC(=N)N)C(=O)NCC(=O)O)C(C)C)[C@@H](C)CC)c4)cc3C)cc2)cc1 |
| – | – | – | 0.93 | 0.16 | 2.44 | CCOc1ccc(Nc2ccc(/C(=C3C=C/C(=[N+](\CC)Cc4cccc(S(=O)(=O)[O-])c4)C=C/3C)c3ccc(N(CC)Cc4cccc(S(=O)(=O)NCCCCCC(=O)NCCOCCOCCOCCOCCOCCOCCOCCOCCC(=O)NCCCC[C@H](NC(=O)[C@H](C)NC(=O)[C@H](C)NC(=O)[C@H](CCC(N)=O)NC(=O)CNC(=O)[C@H](CCC(=O)O)NC(=O)[C@H](CC(C)C)NC(=O)[C@H](Cc5ccc(O)cc5)NC(=O)[C@H](CO)NC(=O)[C@H](CO)NC(=O)[C@@H](NC(=O)[C@H](CC(=O)O)NC(=O)[C@H](CO)NC(=O)[C@@H](NC(=O)[C@H](Cc5ccccc5)NC(=O)[C@@H](NC(=O)CNC(=O)[C@H](CCC(=O)O)NC(=O)C(C)(C)NC(=O)[C@@H](N)Cc5c[nH]cn5)[C@@H](C)O)[C@@H](C)O)C(C)C)C(=O)N[C@@H](CCC(=O)O)C(=O)N[C@@H](Cc5ccccc5)C(=O)N[C@H](C(=O)N[C@@H](C)C(=O)N[C@@H](Cc5c[nH]c6ccccc56)C(=O)N[C@@H](CC(C)C)C(=O)N[C@H](C(=O)N[C@@H](CCCNC(=N)N)C(=O)NCC(=O)N[C@@H](CCCNC(=N)N)C(=O)NCC(=O)O)C(C)C)[C@@H](C)CC)c4)cc3C)cc2)cc1 |
| – | – | – | – | 3.35 | 14.5 | CCOc1ccc(Nc2ccc(/C(=C3C=C/C(=[N+](\CC)Cc4cccc(S(=O)(=O)[O-])c4)C=C/3C)c3ccc(N(CC)Cc4cccc(S(=O)(=O)NCCCCCC(=O)NCCOCCOCC(=O)NCCCC[C@H](NC(=O)[C@H](C)NC(=O)[C@H](C)NC(=O)[C@H](CCC(N)=O)NC(=O)CNC(=O)[C@H](CCC(=O)O)NC(=O)[C@H](CC(C)C)NC(=O)[C@H](Cc5ccc(O)cc5)NC(=O)[C@H](CO)NC(=O)[C@H](CO)NC(=O)[C@@H](NC(=O)[C@H](CC(=O)O)NC(=O)[C@H](CO)NC(=O)[C@@H](NC(=O)[C@H](Cc5ccccc5)NC(=O)[C@@H](NC(=O)CNC(=O)[C@H](CCC(=O)O)NC(=O)C(C)(C)NC(=O)[C@@H](N)Cc5c[nH]cn5)[C@@H](C)O)[C@@H](C)O)C(C)C)C(=O)N[C@@H](CCC(=O)O)C(=O)N[C@@H](Cc5ccccc5)C(=O)N[C@H](C(=O)N[C@@H](C)C(=O)N[C@@H](Cc5c[nH]c6ccccc56)C(=O)N[C@@H](CC(C)C)C(=O)N[C@H](C(=O)N[C@@H](CCCNC(=N)N)C(=O)NCC(=O)N[C@@H](CCCNC(=N)N)C(=O)NCC(=O)O)C(C)C)[C@@H](C)CC)c4)cc3C)cc2)cc1 |

More lines, now with the values behind:

| SMILES | EC50 ([1]; hek293) | EC50 ([2]; hek293) | EC50 ([3]; hek293) | EC50 ([1]; read-out: EC50) [pM] | EC50 ([2]; read-out: EC50) [pM] | EC50 ([3]; read-out: EC50) [pM] |
| --- | --- | --- | --- | --- | --- | --- |
| CC[C@H](C)[C@H](NC(=O)[C@H](Cc1ccccc1)NC(=O)[C@H](CCC(=O)O)NC(=O)[C@H](CCCCN)NC(=O)[C@H](C)NC(=O)[C@H](C)NC(=O)[C@H](CCC(N)=O)NC(=O)CNC(=O)[C@H](CCC(=O)O)NC(=O)[C@H](CC(C)C)NC(=O)[C@H](Cc1ccc(O)cc1)NC(=O)[C@H](CO)NC(=O)[C@H](CO)NC(=O)[C@@H](NC(=O)[C@H](CC(=O)O)NC(=O)[C@H](CO)NC(=O)[C@@H](NC(=O)[C@H](Cc1ccccc1)NC(=O)[C@@H](NC(=O)CNC(=O)[C@@H](N)CCC(=O)O)[C@@H](C)O)[C@@H](C)O)C(C)C)C(=O)N[C@@H](C)C(=O)N[C@@H](Cc1c[nH]c2ccccc12)C(=O)N[C@@H](CC(C)C)C(=O)N[C@H](C(=O)N[C@@H](CCCNC(=N)N)C(=O)NCC(=O)N[C@@H](CCCNC(=N)N)C(=O)NCC(N)=O)C(C)C | No_effect | No_effect | No_effect | – | – | – |
| CCOc1ccc(Nc2ccc(/C(=C3C=C/C(=[N+](\CC)Cc4cccc(S(=O)(=O)[O-])c4)C=C/3C)c3ccc(N(CC)Cc4cccc(S(=O)(=O)NCCCCCC(=O)N[C@@H](CS(=O)(=O)O)C(=O)N[C@@H](CS(=O)(=O)O)C(=O)NCCCC[C@H](NC(=O)[C@H](C)NC(=O)[C@H](C)NC(=O)[C@H](CCC(N)=O)NC(=O)CNC(=O)[C@H](CCC(=O)O)NC(=O)[C@H](CC(C)C)NC(=O)[C@H](Cc5ccc(O)cc5)NC(=O)[C@H](CO)NC(=O)[C@H](CO)NC(=O)[C@@H](NC(=O)[C@H](CC(=O)O)NC(=O)[C@H](CO)NC(=O)[C@@H](NC(=O)[C@H](Cc5ccccc5)NC(=O)[C@@H](NC(=O)CNC(=O)[C@H](CCC(=O)O)NC(=O)C(C)(C)NC(=O)[C@@H](N)Cc5c[nH]cn5)[C@@H](C)O)[C@@H](C)O)C(C)C)C(=O)N[C@@H](CCC(=O)O)C(=O)N[C@@H](Cc5ccccc5)C(=O)N[C@H](C(=O)N[C@@H](C)C(=O)N[C@@H](Cc5c[nH]c6ccccc56)C(=O)N[C@@H](CC(C)C)C(=O)N[C@H](C(=O)N[C@@H](CCCNC(=N)N)C(=O)NCC(=O)N[C@@H](CCCNC(=N)N)C(=O)NCC(=O)O)C(C)C)[C@@H](C)CC)c4)cc3C)cc2)cc1 | – | – | – | 6.98 | 1.66 | 7.08 |
| CCOc1ccc(Nc2ccc(/C(=C3C=C/C(=[N+](\CC)Cc4ccc(S(=O)(=O)[O-])cc4)C=C/3C)c3ccc(N(CC)Cc4cccc(S(=O)(=O)NCCCCCC(=O)NCCCC[C@H](NC(=O)[C@H](C)NC(=O)[C@H](C)NC(=O)[C@H](CCC(N)=O)NC(=O)CNC(=O)[C@H](CCC(=O)O)NC(=O)[C@H](CC(C)C)NC(=O)[C@H](Cc5ccc(O)cc5)NC(=O)[C@H](CO)NC(=O)[C@H](CO)NC(=O)[C@@H](NC(=O)[C@H](CC(=O)O)NC(=O)[C@H](CO)NC(=O)[C@@H](NC(=O)[C@H](Cc5ccccc5)NC(=O)[C@@H](NC(=O)CNC(=O)[C@H](CCC(=O)O)NC(=O)C(C)(C)NC(=O)[C@@H](N)Cc5c[nH]cn5)[C@@H](C)O)[C@@H](C)O)C(C)C)C(=O)N[C@@H](CCC(=O)O)C(=O)N[C@@H](Cc5ccccc5)C(=O)N[C@H](C(=O)N[C@@H](C)C(=O)N[C@@H](Cc5c[nH]c6ccccc56)C(=O)N[C@@H](CC(C)C)C(=O)N[C@H](C(=O)N[C@@H](CCCNC(=N)N)C(=O)NCC(=O)N[C@@H](CCCNC(=N)N)C(=O)NCC(=O)O)C(C)C)[C@@H](C)CC)c4)cc3C)cc2)cc1 | – | – | – | – | – | 8.82 |
| CCOc1ccc(Nc2ccc(/C(=C3C=C/C(=[N+](\CC)Cc4cccc(S(=O)(=O)[O-])c4)C=C/3C)c3ccc(N(CC)Cc4cccc(S(=O)(=O)NCCCCCC(=O)N[C@@H](CCC(=O)NCCOCCOCC(=O)NCCCC[C@H](NC(=O)[C@H](C)NC(=O)[C@H](C)NC(=O)[C@H](CCC(N)=O)NC(=O)CNC(=O)[C@H](CCC(=O)O)NC(=O)[C@H](CC(C)C)NC(=O)[C@H](Cc5ccc(O)cc5)NC(=O)[C@H](CO)NC(=O)[C@H](CO)NC(=O)[C@@H](NC(=O)[C@H](CC(=O)O)NC(=O)[C@H](CO)NC(=O)[C@@H](NC(=O)[C@H](Cc5ccccc5)NC(=O)[C@@H](NC(=O)CNC(=O)[C@H](CCC(=O)O)NC(=O)C(C)(C)NC(=O)[C@@H](N)Cc5c[nH]cn5)[C@@H](C)O)[C@@H](C)O)C(C)C)C(=O)N[C@@H](CCC(=O)O)C(=O)N[C@@H](Cc5ccccc5)C(=O)N[C@H](C(=O)N[C@@H](C)C(=O)N[C@@H](Cc5c[nH]c6ccccc56)C(=O)N[C@@H](CC(C)C)C(=O)N[C@H](C(=O)N[C@@H](CCCNC(=N)N)C(=O)NCC(=O)N[C@@H](CCCNC(=N)N)C(=O)NCC(=O)O)C(C)C)[C@@H](C)CC)C(=O)O)c4)cc3C)cc2)cc1 | – | – | – | – | 0.63 | 3.29 |
